Assay [1] deals with T1, Scytalone dehydratase (Magnaporthe oryzae (strain 70-15 / FGSC 8958) (Rice blast fungus)(Pyricularia oryzae), UniProt P56221).
T1 sequence (P56221 whole entry): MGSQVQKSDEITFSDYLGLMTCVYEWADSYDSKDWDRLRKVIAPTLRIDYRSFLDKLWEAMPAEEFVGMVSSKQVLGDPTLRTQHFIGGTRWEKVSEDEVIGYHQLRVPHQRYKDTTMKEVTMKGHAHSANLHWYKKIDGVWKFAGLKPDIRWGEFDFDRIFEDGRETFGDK
Put plainly: The inhibitory activity (Ki) of the deprotonated compound was measured against scytalone dehydratase at pH 9.8. Set-up: species or system Pyricularia grisea.

Assay [2] has as its target T1, Scytalone dehydratase. Description: The inhibitory activity (Ki) of the protonated compound was measured against scytalone dehydratase at pH 7.0. Further details: species or system Pyricularia grisea.

In general, Ki refers to the equilibrium dissociation constant of an inhibitor or competing ligand from its target. The low end stands for tighter binding, the high end for weaker binding. Consider `c1ccc(CCCNc2ncnc3ccccc23)cc1`, for which the inhibitory constant (Ki) on Scytalone dehydratase [1] amounted to 19 nM; on Scytalone dehydratase [2] it was 1800 nM.
On the same counts, the results for `O=C(NCCCc1ccccc1)c1ccccc1O` are 230 nM and 7.3 nM.
For `c1ccc(CCCNc2nccc3ccccc23)cc1`, the Ki was 2300 nM on Scytalone dehydratase [1] and 6700 nM on Scytalone dehydratase [2].
On the same counts, the results for `c1ccc(CCCNc2ccnc3ccccc23)cc1` are 45000 nM and 88000 nM.

The values are drawn from ChEMBL document CHEMBL1126529, “A diazine heterocycle replaces a six-membered hydrogen-bonded array in the active site of scytalone dehydratase” (Bioorg Med Chem Lett, 1993).
